Source: patent publication US8895032B2, “Dendritic nano-antioxidants” (Central Michigan University, priority 2009, dated 2014)
Blank lines part the entries; values can stand above or below the compound they belong to.

Assays:
[1] = Brand-Williams et al.; cited from earlier work
[2] = DPPH radical assay
Protocol: The DPPH assay was one of three electron transfer (ET) assays used to determine the antioxidant potential of compound 1 (described in Example 6) in comparison to its monomeric counterpart (syringaldehyde) as well as popular antioxidants. In an ET assay, an antioxidant donates electron(s) to a molecular probe, thus reducing it. From the assay, thermodynamic conversion of antioxidant to antioxidant radical (oxidation) is measured during a fixed time period.
The reduction of DPPH radical was determined for ascorbic acid, Trolox, syringaldehyde, and the compound 1 described in Example 6 as previously reported (Brand-Williams, et al. Lebensm.-Wiss U.-Technol. 1995, 28, 25-30, incorporated herein by reference in its entirety). In the DPPH assay, DPPH• radical was reduced by the antioxidant in methanol (Brand-Williams, et al. Lebensm.-Wiss U.-Technol. 1995, 28, 25-30, incorporated herein by reference in its entirety). […] The DPPH reagent was made in methanol. Antioxidant sample (10 μL) was added to 1.0 mL of reagent and the absorbance was monitored at 515 nm until a plateau was reached. Antioxidant concentrations were 50 μM syringaldehyde, 12.5 μM Trolox and ascorbic acid, and 5 μM compound 1. All samples were made in methanol and run in triplicates at room temperature.
The DPPH• scavenging capacity of each antioxidant was evaluated from the plot of the percentage DPPH• remaining when the kinetics reached a steady state as a function of the molar ratios of antioxidant to DPPH•. […] Using the curve, EC50 (the amount of antioxidant necessary to decrease the initial DPPH• concentration by 50%), antiradical power (1/EC50, ability to reduce the DPPH•), reaction stoichiometry (EC50×2, the concentration of antioxidant required to reduce 100% of DPPH• radical), and the number of reduced DPPH• per antioxidant molecule (1/stoichiometry) for each antioxidant were calculated as previously described (Brand-Williams, et al. Lebensm.-Wiss U.-Technol. 1995, 28, 25-30, incorporated herein by reference in its entirety) and are depicted in Table 1.
Antioxidant capacity of the compounds was assessed by the DPPH assay (Brand-Williams, et al. Lebensm. Wiss. Technol. 1995, 28, 25, incorporated herein by reference in its entirety). […] In FIG. 22, control with methanol is (X, dashed); compound 1 is (□), compound 2 is (•), compound 3 is (◯), and Trolox (Δ). All antioxidant concentrations were 5 μM.
The free-radical scavenging ability of the antioxidants was evaluated by the DPPH assay, as described above in Example 7.

[3] = ABTS radical cation decolorization assay; type: biochemical
Description: We have tested AO activity of G1 (13) using ABTS as a radical source using a previously reported spectroscopic assay. The AO activity of the G1 (13) was compared to those of syringaldehyde, gallic acid, and vitamin C. If the phenolic OH group is the radical scavenging site, the expected AO activity of the G1 (13) should be 4 fold higher than that of syringaldehyde and 1.3 fold higher than that of gallic acid (which has three phenolic OH groups).
ABTS radical cation decolorization assay was used as previously described (Ozgen, et al. J. Agric. Food Chem. 2006, 54, 1151-1157, incorporated herein by reference in its entirety). Like the DPPH assay, this was also a decolorization assay and measured absorbance decrease at 734 nm as the ABTS radical (ABTS•+) is quenched by the antioxidant. The solvent used for the assay was ethanol. ABTS reagent was added to 1.0 mL solvent in a cuvet to bring the absorbance to 0.7. A 10 μL sample of antioxidant was then added, mixed, and the absorbance monitored at 734 nm for 6 min. Antioxidant concentrations were 14.4 μM Trolox, 11.4 μM ascorbic acid, 15.4 μM syringaldehyde, and 3 μM compound 1. The % decrease in absorbance at 6 min was plotted against antioxidant concentrations. The gradient of the line obtained by linear regression for a given antioxidant was divided by that obtained for Trolox to yield Trolox equivalent antioxidant (TEAC) values. All samples were made in ethanol and run in triplicates and at room temperature.

[4] = FRAP assay (reduction of Fe(III) to Fe(II)); type: biochemical; set-up: Slope of ΔA593 versus concentration: unit not given here; conditions: for Slope of ΔA593 versus concentration: 37° C.
Protocol: The FRAP assay was performed as previously described (Pulido, et al. J. Agric. Food Chem. 2000, 48, 3396-3402, incorporated herein by reference in its entirety). In the FRAP assay, ferric was reduced by the antioxidant to ferrous via electron transfer (Benzie et al., Anal. Biochem. 1996, 239, 70-76, incorporated herein by reference in its entirety). This assay measured the redox potential of an antioxidant which is used as an estimate of antioxidant efficiency and expressed as a FRAP value. […] The compound 1 as well as the other antioxidants was dissolved in methanol. […] Reaction kinetics of the compound 1 and other antioxidants were obtained by plotting the change in slopes at various times and are shown in FIG. 18. […] This time-dependent increase in absorbance was previously reported (Pulido, et al. J. Agric. Food Chem. 2000, 48, 3396-3402, incorporated herein by reference in its entirety) and was especially significant with polyphenolic compounds. […] However, the FRAP value increased with time, reaching 2.5 in 60 min. […] J. Agric. Food Chem. 2000, 48, 3396-3402, incorporated herein by reference in its entirety). […] EC1 values, and therefore ferric reducing ability, were lower at longer reaction times as expected from the kinetic behavior of the antioxidants (Pulido, et al. J. Agric. Food Chem. 2000, 48, 3396-3402, incorporated herein by reference in its entirety).

[5] = system: pBR 322 DNA with Cu2+; experiment: Pro-oxidant effect: oxidation of DNA with copper (II) ion; conditions: 10 μM Cu2+, 37° C., 1 h
Protocol: The pro-oxidant effect of compounds 1, 2, and 3 was examined by oxidation of DNA with copper (II) ion. pBR 322 was incubated with 10 μM Cu^2+ at 37° C. for 1 h in the presence of compound 1, 2, or 3 (final concentrations between 0.35 and 45 μM). […] Lane 1 is native DNA, and lanes 2-10 are Cu^2+-oxidized DNA with 0, 45, 23, 11, 5, 3, 1.5, 0.7, and 0.35 μM antioxidant, respectively.
This was performed by co-incubation of DNA (pBR 322), copper (II) ion and antioxidant. […] This ultimately forms DNA-Cu(I)OOH, initiating a free radical cascade by which DNA damage occurs. pBR 322 was incubated with 10 μM Cu^2+ in the presence of antioxidants (0-45 μM) at 37° C. for 1 h and subjected to agarose electrophoresis. […] In FIG. 32, lane 1 is native DNA, and lanes 2-10 are Cu^2+ oxidized DNA with 0, 45, 23, 11, 5, 3, 1.5, 0.7, and 0.35 μM antioxidant, respectively. […] However, it should be noted that physiological concentrations of copper are less than 10-20 μM in plasma and approximately […] for the cation in cells.

[6] = system: plasmid DNA pBR 322; experiment: Protection of plasmid DNA from AAPH damage (agarose electrophoresis); type: biochemical; conditions: 10 mM AAPH, 37° C., 4 h
Protocol: The effectiveness of the three compounds to protect DNA from AAPH damage was also determined. The plasmid DNA pBR 322 was incubated with AAPH (final concentration 10 mM) at 37° C. for 4 h with or without antioxidants (final concentrations, 0.35-45 μM), after which the samples were subjected to agarose electrophoresis (Sakihama, Y., et al. Toxicology 2002, 177, 67, incorporated herein by reference in its entirety). […] In the absence of AAPH, pBR 322 was mostly in its supercoiled (S) form (small amount of open circular, O, form was also visible, lane 1 FIG. 25). After reaction with AAPH, the DNA was transformed almost entirely into its open circular form (lane 2, FIG. 25). […] No protection was obtained for both compound 1 and quercetin below 5 μM (lanes 7-10, FIG. 25). […] Compound 3 as well as Trolox were ineffective at all concentrations used in the experiment (0.35-45 μM).
Protection of DNA from free radical damage by the antioxidant dendrimers (compounds 4, 5, and 1) was also evaluated. Plasmid DNA (pBR 322) samples, were incubated with AAPH (final concentration 10 mM) at 37° C. for 4 h with antioxidants (final concentrations, 0.35-45 μM) and subjected to agarose electrophoresis. […] The native DNA was mostly in its supercoiled (S) form (small amount of open circular, O, form was also visible, lane 1, FIG. 31). In the presence of AAPH, the DNA was transformed almost entirely into its O form (lane 2, FIG. 31). […] Negligible DNA protection was afforded by all three dendrimers at ≦2.5 μM (lanes 7-10, FIG. 31). Under similar conditions, Trolox as well as the starting materials for dendrimer synthesis were ineffective at all concentrations.

[7] = system: Human LDL; experiment: Protection of LDL from AAPH oxidation (agarose gel electrophoresis); type: biochemical; conditions: 1-30 μM, 20 mM AAPH, 21 h, 37° C.
Description: The antioxidant activity of compounds 1, 2, and 3 towards biomolecules was examined by studying their ability to protect LDL, fatty acid, and DNA from free radicals. For LDL, AAPH was used to induce free radical damage. AAPH was used instead of copper (Cu^2) ion for LDL oxidation so that the free radical scavenging activity of the antioxidants could be measured without any pro-oxidant interference caused by metal ions (Salah, N. et al. Arch. Biochem. Biophys. 1995, 322, 339, incorporated herein by reference in its entirety). All solutions were made in ultra-pure water.
Protection of LDL from AAPH free radicals by the antioxidant decreased the anodic shift in a dose-dependent manner (FIG. 23). […] The increased hydrophobicity of compound 3 may be partly responsible for its improved LDL protection over compound 2.
The antioxidant activity of the antioxidants towards biomolecules was examined by studying their ability to protect LDL, lysozyme, and DNA from free radicals. For LDL, AAPH was used to induce free radical damage. AAPH was used instead of Cu^2+ for LDL oxidation so that the free radical scavenging activity of the antioxidants could be measured without any pro-oxidant interference caused by metal ions. The oxidation of human low-density lipoprotein was used as a model for evaluating the ability of the G1 dendrimers as chain-breaking antioxidants for lipid. Oxidation of LDL leads to changes in both the lipid and the protein moieties of the lipoprotein particle. Lipid peroxidation in LDL has been evaluated by a variety of methods. Due to the complexity of events that occur in lipoprotein oxidation, the electrophoretic migration pattern of oxidized LDL is one of the best methods to evaluate the extent of lipoprotein oxidation. LDL was incubated with 20 mM AAPH and increasing concentrations of the G1 dendrimers (0-37 μM in PBS) for 21 h at 37° C. The mixture was then subjected to agarose gel electrophoresis using the Ciba Corning Clinical Electrophoresis System. The agarose gel was stained with Fat Red 7B. In FIG. 30A (top), lane 1 is native LDL, and lanes 2-8 are AAPH-oxidized LDL with 0, 37, 18.5, 9, 4.5, 2 and 1 μM compound 4, respectively. In FIG. 30B (bottom), lane 1 is native LDL, and lanes 2-8 are AAPH-oxidized LDL with 0, 37, 18.5, 9, 4.5, 2 and 1 μM quercetin or Trolox, respectively.

IC50 ([3]; final concentration in the cuvet, read-out: concentration at which 50% inhibition of ABTS•+ was observed): ~13 µM
SMILES: O=C1O[C@H]([C@@H](O)CO)C(O)=C1O [Ascorbic acid, ascorbic acid]
ARP, previously reported value [1]: 3.70
Stoichiometry, previously reported value [1]: 0.54
number of reduced DPPH• per antioxidant molecule, previously reported value [1]: 1.85
# of DDPH• reduced per antioxidant molecule (1/stoichiometry) [2]: 1.8
Antioxidant Capacity Relative to Trolox, DPPH [2]: 1
Antioxidant Capacity Relative to Trolox, ABTS [3]: 0.90
time to reach a plateau of ABTS•+ absorbance suppression ([3]; 14.4 μM Trolox, 11.4 μM ascorbic acid): one
Slope of % decrease in absorbance at 6 min versus antioxidant concentration ([3]; linear regression, concentration in μM): 3.6
TEAC ([3]; slope divided by that of Trolox, % decrease in A734 at 6 min, ethanol): 0.9
Antioxidant Capacity Relative to Trolox, FRAP 5 min ([4]; 5 min): 0.91
EC1 (concentration with ferric-TPTZ reducing ability equivalent to 1 mM FeSO4.7H2O) ([4]; 5 min): 505 µM
FRAP value relative to Fe(II) ([4]; 5 min, listed as Ascorbic Acid): 2.0
FRAP value relative to Fe(II) ([4]; 5 min, listed as ascorbic acid): ~2
FRAP value relative to Fe(II) ([4]; 15 min): 2.1
FRAP value relative to Fe(II) ([4]; 30 min): 2.3
Antioxidant Capacity Relative to Trolox, FRAP 60 min ([4]; 60 min): 1.1
EC1 (concentration with ferric-TPTZ reducing ability equivalent to 1 mM FeSO4.7H2O) ([4]; 60 min): 395 µM
FRAP value relative to Fe(II) ([4]; 60 min): 2.5
Slope of ΔA593 versus concentration ([4]; Reaction time 5 min): 0.0238
Slope of ΔA593 versus concentration ([4]; Reaction time 15 min): 0.0255
Slope of ΔA593 versus concentration ([4]; Reaction time 30 min): 0.0272
Slope of ΔA593 versus concentration ([4]; Reaction time 60 min): 0.0305

IC50 ([2]; read-out: DPPH IC50 at 120 min, Example 15): 10 µM
SMILES: O=c1c(O)c(-c2ccc(O)c(O)c2)oc2cc(O)cc(O)c12 [quercetin]
pro-oxidant DNA damage ([5]; 11-45 μM antioxidant): DNA damage was clearly observed
pro-oxidant effect ([5]; between 3 and 5 μM antioxidant): more pronounced pro-oxidant effect than compound 1
DNA protection ([6]; 5 μM antioxidant): not
DNA protection ([6]; below 5 μM antioxidant): No protection
protection of LDL at all antioxidant concentrations [7]: ineffective
